From article PMC9827630, “Intra-colony venom diversity contributes to maintaining eusociality in a cooperatively breeding ant” (BMC Biology, 2023)
Values joined by “and” are separate entries in the source; they are usually repeats but may differ in a detail not shown here. Equal values may be shown once. Where no end group is shown, it is not given here.

Assays:
Assay type in all cases: cell-based
[1] = tested on: Cryptococcus neoformans var. grubii H99; ATCC 208821; experiment: Antifungal growth inhibition (CO-ADD); conditions: for MIC: sigmoidal dose-response fit of growth inhibition, resazurin read-out
Procedure: (§1) Antimicrobial and cytotoxicity assays were performed by CO-ADD (The Community for Antimicrobial Drug Discovery, Institute for Molecular Bioscience, The University of Queensland). […] Percentage growth inhibition was calculated using negative controls (media only) and positive controls (no peptide). For the hemolysis assays, human whole blood was washed three times with 3 volumes of 0.9% NaCl and then resuspended in 0.9% NaCl to a concentration of 0.5 × 10^8 cells/mL. Cells were incubated for 1 h at 37°C with or without the peptide. After incubation, plates were centrifuged at 1000 g for 10 min to pellet cells and debris and hemolysis determined by measuring the supernatant absorbance at 405 nm.

[2] = tested on: Candida albicans ATCC 90028; experiment: Antifungal growth inhibition (CO-ADD); conditions: absorbance at 530 nm; for MIC: sigmoidal dose-response fit of growth inhibition
Procedure: as §1

[3] = tested on: Pseudomonas aeruginosa ATCC 27853; experiment: Antimicrobial growth inhibition (CO-ADD); conditions: absorbance at 600 nm; for Max response ± SEM: percentage growth inhibition, mean ± SEM; for MIC: sigmoidal dose-response fit of growth inhibition
Procedure: as §1

[4] = tested on: Acinetobacter baumannii ATCC 19606; experiment: Antimicrobial growth inhibition (CO-ADD); conditions: absorbance at 600 nm; for Max response ± SEM: percentage growth inhibition, mean ± SEM; for MIC: sigmoidal dose-response fit of growth inhibition
Procedure: as §1

[5] = tested on: Klebsiella pneumoniae ATCC 700603; experiment: Antimicrobial growth inhibition (CO-ADD); conditions: absorbance at 600 nm; for Max response ± SEM: percentage growth inhibition, mean ± SEM; for MIC: sigmoidal dose-response fit of growth inhibition
Procedure: as §1

[6] = tested on: Staphylococcus aureus ATCC 43300; experiment: Antimicrobial growth inhibition (CO-ADD); conditions: absorbance at 600 nm; for Max response ± SEM: percentage growth inhibition, mean ± SEM; for MIC: sigmoidal dose-response fit of growth inhibition
Procedure: as §1

[7] = tested on: Escherichia coli ATCC 25922; experiment: Antimicrobial growth inhibition (CO-ADD); conditions: absorbance at 600 nm; for Max response ± SEM: percentage growth inhibition, mean ± SEM; for MIC: sigmoidal dose-response fit of growth inhibition
Procedure: as §1

panel of microbes = experiment: Antimicrobial screening, summary over the panel of microbes; conditions: all strains of the panel (for Rm54a and Rm55a: strains other than S. aureus)
Procedure: as §1

Substance: FWLKGGRGDG-NH2 [Rm53a/b]
- MIC [1]: >29 µM
- MIC [2]: >29 µM
- Max response ± SEM [3]: 12 ± 4 and 11 ± 5
- MIC [3]: >29 µM
- Max response ± SEM [4]: 5 ± 1 and 4 ± 2
- MIC [4]: >29 µM
- Max response ± SEM [5]: 5 ± 0
- MIC [5]: >29 µM
- Max response ± SEM [6]: 5 ± 1 and 7 ± 2
- MIC [6]: >29 µM
- Max response ± SEM [7]: 4 ± 1 and 3 ± 1
- MIC [7]: >29 µM
- Growth inhibition over the microbial strains examined (panel of microbes): no inhibitory activity

Substance: RNVPRWFTPRL-NH2 [Rm52d]
- Max response ± SEM ([1]; percentage growth inhibition, difference in absorbance 600 and 570 nm after resazurin, 35°C 2 h, mean ± SEM): -13 ± 5
- MIC [1]: >22 µM
- Max response ± SEM ([2]; percentage growth inhibition, mean ± SEM): 2 ± 1
- MIC [2]: >22 µM
- Max response ± SEM [3]: 7 ± 0
- MIC [3]: >22 µM
- Max response ± SEM [4]: 5 ± 2
- MIC [4]: >22 µM
- Max response ± SEM [5]: 5 ± 0
- MIC [5]: >22 µM
- Max response ± SEM [6]: 12 ± 6
- MIC [6]: >22 µM
- Max response ± SEM [7]: 1 ± 2
- MIC [7]: >22 µM
- Growth inhibition over the microbial strains examined (panel of microbes): no inhibitory activity
